Several values for one entry are separate records, joined by “and”; a condition that tells them apart may be missing. Equal values may be shown once. Entries after “also recorded” stand apart in the source; their conditions may differ. Bridges are numbered along the chain shown (N, C = ends).
Columns and labels:
cerebellar neurons [1] = experiment: Neurite outgrowth assay, control media (basal outgrowth); format: cell-based, rat; conditions: for effect on basal neurite outgrowth: peptide 100 μg/ml, without MAG-Fc
Description: (§1) Cerebellar neurons isolated from postnatal day ⅔ rat pups were cultured over monolayers of 3T3 cells (Doherty et al. (1991) Neuron 6(2):247-58) essentially as previously described (Williams et al. (1994) Neuron 13(3):583-94). Monolayers were established by seeding ˜80,000 cells into individual chambers of an eight-chamber tissue culture slide coated with poly-L-lysine and fibronectin. The cell lines, and monolayers, were maintained in Dulbecco's modified Eagle's medium supplemented with 10% fetal calf serum (FCS). Cocultures were established by removing the media from the monolayers and seeding ˜6000 dissociated cerebellar neurons into each well in SATO medium (modified from Doherty et al. (1990) Neuron 5(2):209-19; Dulbecco's modified Eagle's medium supplemented with 2% FBS, 33% bovine albumin, 0.62 μg/ml progesterone, 161 μg/ml putrescine, 4 μg/ml L-thyroxine, 0.387 μg/ml selenium, and 3.37 μg/ml tri-iodo-thyronine (components from Sigma-Aldrich, St. Louis, Mo.)). Monolayers were established for 24 hours prior to addition of the neurons and the cultures were maintained for ˜23-27 hr. Following careful fixation with 4% paraformaldehyde, the neurons were stained with a GAP-43 antibody, and the mean length of the longest neurite per cell was measured for ˜120-150 neurons, again as previously described (Williams et al. (1994) supra). For neurite outgrowth on substrate-bound MAG, 96-well plates were coated with a thin layer of nitrocellulose (Bio-Rad, Hercules, Calif.) before incubating with 1 μg/ml of MAG(d1-5) (a chimeric construct containing domains 1-5 of the extracellular portion of MAG) at 4° C. overnight. Wells were subsequently coated with 17 μg/ml of poly-D-lysine (Sigma, St. Louis, Mo.), followed by incubation in Dulbecco's modified Eagle's medium containing 10% FCS. Cerebellar granule neurons were dissociated and seeded at a density of 10^4 cells per well. Cells were cultured for 18-20 h before being fixed with 4% paraformaldehyde and stained with a neuronal-specific anti-III-tubulin antibody, Tuj 1 (Covance, Emeryville, Calif.). The average of total neurite lengths from each neuron was measured automatically by the MetaXpress Neurite Outgrowth module (Molecular Devices, Sunnyvale, Calif.) from at least 200 neurons per well, in triplicate wells per experiment. Results were repeated independently more than three times.
(§2) Synthetic peptides were all obtained from a commercial supplier (Multiple Peptide Systems, San Diego, Calif.). All peptides were purified to the highest grade by reverse-phase HPLC and obtained at the highest level of purity (>97%). With all peptides, there was no indication of higher molecular weight species. Where peptide sequences are underlined, this denotes a peptide that has been cyclized via a disulfide bond between the given cysteine residues. All peptides were acetylated (e.g., denoted with “N-Ac-”) and amide blocked (e.g., denoted with “—NH2”). Recombinant MAG-Fc chimera was obtained from R&D Systems (Minneapolis, Minn.) and used at final concentrations ranging from 5-25 μg/ml. The monoclonal antibody to GT1b (clone GMR5) was obtained from Seikagaku America (Falmouth, Mass.) and was used at a final concentration of 20 μg/ml. All reagents were diluted into the coculture media and, in general, added to the cultures just prior to the plating of the neurons. GT1b and GM1 were obtained as gifts from Dr. Gino Toffano (Libero, Italy) and University of Milan, and asialo-GM1 was obtained from Sigma (St. Louis, Mo.). The recombinant NgR1(310)-fc and MAG(d1-5) chimeras were expressed and purified in-house. Pharmacological reagents were obtained from Calbiochem (La Jolla, Calif.) and/or Sigma. For reagents used in cell-surface NgR binding assays, please see Examples 1.5 and 1.7. For reagents used in the cell surface p75NTR-NgR-AP binding assay, please see Example 1.13.
(§3) In contrast, a soluble MAG-Fc chimera inhibits neurite outgrowth in a manner that depends upon both ganglioside and NgR function. […]

cerebellar neurons [2] = experiment: Neurite outgrowth assay, inhibition by soluble MAG-Fc; format: cell-based, rat; conditions: for effect on MAG-Fc-suppressed neurite outgrowth / antagonism of MAG-mediated inhibition of axonal growth: peptide 100 μg/ml; for effect on MAG-Fc-suppressed neurite outgrowth: MAG-Fc 25 μg/ml (FIG. 5A); for peptide concentration with maximal effects on neurite outgrowth / peptide concentration with significant effects on neurite outgrowth: MAG-Fc 20 μg/ml (FIG. 6A); for antagonism of inhibitory activity of MAG-Fc: peptide 50 μg/ml (60 μM); for antagonism of inhibitory activity of MAG-Fc / efficacy of peptide relative to NRL2b over a range of concentrations: MAG-Fc 20 μg/ml; for antagonism of MAG-mediated inhibition of axonal growth: MAG-Fc 20 μg/ml (FIG. 6B); for efficacy of peptide relative to NRL2b over a range of concentrations: FIG. 6C, 6D, position 2 effect at 25-50 μg/ml
Description: as §1, §2, §3

cerebellar neurons [3] = experiment: Neurite outgrowth assay, inhibition by GT1b antibody; format: cell-based, rat; conditions: peptide 100 μg/ml; antibody tested at up to 40 μg/ml
Description: Cerebellar neurons isolated from postnatal day ⅔ rat pups were cultured over monolayers of 3T3 cells (Doherty et al. (1991) Neuron 6(2):247-58) essentially as previously described (Williams et al. (1994) Neuron 13(3):583-94). Monolayers were established by seeding ˜80,000 cells into individual chambers of an eight-chamber tissue culture slide coated with poly-L-lysine and fibronectin. The cell lines, and monolayers, were maintained in Dulbecco's modified Eagle's medium supplemented with 10% fetal calf serum (FCS). […] Following careful fixation with 4% paraformaldehyde, the neurons were stained with a GAP-43 antibody, and the mean length of the longest neurite per cell was measured for ˜120-150 neurons, again as previously described (Williams et al. (1994) supra). […] The average of total neurite lengths from each neuron was measured automatically by the MetaXpress Neurite Outgrowth module (Molecular Devices, Sunnyvale, Calif.) from at least 200 neurons per well, in triplicate wells per experiment. […]

NgR1(310)-fc = molecular target: T1, NgR1(310)-fc (Homo sapiens, UniProt Q9BZR6); experiment: Analytical ultracentrifugation (sedimentation velocity), wild type receptor; format: binding; conditions: ganglioside 0 to 48 μM (FIG. 3A-C)
T1 construct: made in house; host or cells: mammalian expression vector (pSMED2)
Description: Human Nogo Receptor 1 (NgR1)(310)-fc point mutants (FRG-1 (R151E); FRG-2 (R279E); FRG-3 (R199E), and FRG-4 (R151E/R279E/R199E)) were constructed by Genewiz (North Brunswick, N.J.) using their site-directed mutagenesis technology. The template used to construct all the described mutants was wild type human NgR1(310)-fc (SEQ ID NO:59), which was generated by fusing a nucleotide sequence corresponding to the first 310 amino acid of Human Nogo Receptor 1 to a human Fc fragment in a mammalian expression vector (the sequence of wild type NgR1(310)-fc and the expression vector is set forth in SEQ ID NO:60 and a schematic of the expression vector is shown in FIG. 11). […]
Sedimentation velocity experiments were performed on a Beckman XLI/XLA analytical ultracentrifuge. […] Scans were recorded at 20° C. with a rotor speed of 35,000 rpm, and the signal was detected at 230 nm with a spacing of 0.006 in the continuous mode. Sedimentation profiles were analyzed by the program Sedfit (Schuck (2000) Biophys. J. 78:1606-19) to obtain the sedimentation coefficient distributions. The solvent density (1.006) and partial specific volume (0.72) were calculated using the program Sednterp (Laue et al. (1992) Analytical Ultracentrifugation in Biochemistry and Polymer Science (Harding, S. E., Towe, A. J. and Horton, J. C., eds.) pp. 90-125, Royal Society of Chemistry, Cambridge, U.K). […]

[4] = without MAG-Fc (data not shown)

T1 sequence (Q9BZR6 with tags, fused parts or gaps limits assumed): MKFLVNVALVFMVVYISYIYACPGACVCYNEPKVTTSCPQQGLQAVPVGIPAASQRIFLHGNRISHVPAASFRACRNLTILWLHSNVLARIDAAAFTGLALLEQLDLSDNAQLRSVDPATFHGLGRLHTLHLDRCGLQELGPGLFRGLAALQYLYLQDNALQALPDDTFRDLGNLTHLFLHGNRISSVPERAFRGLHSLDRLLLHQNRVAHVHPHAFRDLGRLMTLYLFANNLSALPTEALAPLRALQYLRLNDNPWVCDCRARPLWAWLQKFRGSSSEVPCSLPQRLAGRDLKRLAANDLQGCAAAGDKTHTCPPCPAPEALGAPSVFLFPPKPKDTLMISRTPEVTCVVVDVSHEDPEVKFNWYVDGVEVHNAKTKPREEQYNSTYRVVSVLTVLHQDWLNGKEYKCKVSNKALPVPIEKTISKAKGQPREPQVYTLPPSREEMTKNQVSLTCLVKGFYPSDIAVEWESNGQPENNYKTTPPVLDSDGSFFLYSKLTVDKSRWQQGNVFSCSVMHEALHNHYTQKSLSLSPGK

N-Ac-CSLPQRLAC-NH2 (disulfide 1-9 (inferred)) [NRL3]
effect on basal neurite outgrowth (cerebellar neurons [1]): no effect | effect on MAG-Fc-suppressed neurite outgrowth (cerebellar neurons [2]): no effect

N-Ac-CLQKFRGSSC-NH2 (disulfide 1-10 (inferred)) [NRL2]
antagonism of GT1b antibody inhibition of neurite outgrowth (cerebellar neurons [3]): fully inhibited the response; also recorded: failed to inhibit neurite outgrowth | effect on basal neurite outgrowth (cerebellar neurons [1]): no effect | effect on neurite outgrowth in control media (cerebellar neurons [1]; tested at up to 200 μg/ml): no significant effect | peptide concentration at which response reaches plateau (cerebellar neurons [2]; MAG-Fc 25 μg/ml (FIG. 5B)): ~45 µM | peptide concentration with near maximal inhibitory activity (cerebellar neurons [2]; MAG-Fc present): ~45 µM | effect on MAG-Fc-suppressed neurite outgrowth (cerebellar neurons [2]): failed to substantially inhibit neurite outgrowth

N-Ac-CKFRGSC-NH2 (disulfide 1-7 (inferred)) [NRL2a]
effect on neurite outgrowth in control media (cerebellar neurons [1]; [4]): no effect | peptide concentration with maximal effects on neurite outgrowth (cerebellar neurons [2]): 50 μg/ml and 60 μM | peptide concentration with significant effects on neurite outgrowth (cerebellar neurons [2]): 25 μg/ml and 30 μM | antagonism of inhibitory activity of MAG-Fc (cerebellar neurons [2]): effectively antagonized

N-Ac-CQKFRAC-NH2 (disulfide 1-7 (inferred))
antagonism of MAG-mediated inhibition of axonal growth (cerebellar neurons [2]): ineffective

N-Ac-CYNEPKVTC-NH2 (disulfide 1-9 (inferred)) [NRL1]
effect on basal neurite outgrowth (cerebellar neurons [1]): no effect | effect on MAG-Fc-suppressed neurite outgrowth (cerebellar neurons [2]): no effect

QKFRG (listed as Homo sapiens)
antagonism of MAG-mediated inhibition of axonal growth (cerebellar neurons [2]): did not antagonize

N-Ac-CAGRDLKRC-NH2 (disulfide 1-9 (inferred)) [NRL4]
effect on basal neurite outgrowth (cerebellar neurons [1]): no effect | effect on MAG-Fc-suppressed neurite outgrowth (cerebellar neurons [2]): no effect

N-Ac-CQKFAGC-NH2 (disulfide 1-7 (inferred))
antagonism of MAG-mediated inhibition of axonal growth (cerebellar neurons [2]): ineffective

asialo-GM1
interaction with NgR1(310)-fc (shift of sedimentation coefficient) (NgR1(310)-fc): did not interact; also recorded: No change in sedimentation coefficient

N-Ac-CQKARGC-NH2 (disulfide 1-7 (inferred))
efficacy of peptide relative to NRL2b over a range of concentrations (cerebellar neurons [2]): reduced efficacy by about two-fold | antagonism of MAG-mediated inhibition of axonal growth (cerebellar neurons [2]): as effective as NRL2b

N-Ac-CQAFRGC-NH2 (disulfide 1-7 (inferred))
efficacy of peptide relative to NRL2b over a range of concentrations (cerebellar neurons [2]): no obvious effect on the efficacy of the peptide | antagonism of MAG-mediated inhibition of axonal growth (cerebellar neurons [2]): as effective as NRL2b

N-Ac-CQKFRGC-NH2 (disulfide 1-7 (inferred)) [NRL2b]
effect on neurite outgrowth in control media (cerebellar neurons [1]; [4]): no effect | peptide concentration with maximal effects on neurite outgrowth (cerebellar neurons [2]): 50 μg/ml and 60 μM | peptide concentration with significant effects on neurite outgrowth (cerebellar neurons [2]): 25 μg/ml and 30 μM | antagonism of inhibitory activity of MAG-Fc (cerebellar neurons [2]): effectively antagonized
